Experimental data taken from US20140336220A1, “COMPOSITION FOR PREVENTING OR TREATING OBESITY COMPRISING REBAMIPIDE” (The Catholic University of Korea Industry-Academic …, priority 2011, published 2014).

What was measured:
[1] = system: Th17 cells and Treg cells in spleen; experiment: Th17 and Treg cells in spleen of obesity induced arthritis model, confocal microscope; assay type: in vivo, mouse; settings: FIG. 15
Experimental: (§1) Further, in order to investigate whether or not rebamipide affects Th17 and Treg, the inventors of the present disclosure embedded a frozen section (optimal cutting temperature compound: O.C.T. compound) using the spleen of a mouse and rapidly cooled the tissue in liquid nitrogen and attached the tissue on a slide to a thickness of 7 μm using a cryo microtome. Then, the section was fixed with acetone and coated with 10% normal goat serum and blocked from a non-specific reaction for 30 minutes. Thereafter, the section was reacted at 4° C. overnight with primary antibodies, that is, FITC-labeled anti-mFoxp3 Ab, PElabeled anti-mCD4 Ab, and APC-labeled anti-CD25 Ab, diluted with PBS (pH 7.5) at a ratio of 1:100 for Treg analysis and reacted with FITC-labeled anti-mCD4 Ab, and PE-labeled anti-mIL-17 for Th17 cell analysis. On the next day, the section was washed with a PBS solution, and a stained tissue was analyzed with a confocal microscope.

[2] = system: animal group induced with obesity; experiment: Brown fat to white fat ratio, interscapular region; assay type: in vivo, mouse; settings: 30 mg/kg and 100 mg/kg, vs animal group induced with obesity, FIG. 10
Experimental: Thus, in order to check an effect of treatment with rebamipide on white fat and brown fat in vivo, the inventors of the present disclosure separated fat from an interscapular region of an animal group induced with obesity and a group treated with rebamipide with a dose of 30 mg/kg and 100 mg/kg and divided into white fat and brown fat. A weight of each of the white fat and the brown fat was measured, and an amount of the brown fat with respect to the white fat was calculated.

[3] = system: animal model with obesity induced arthritis; experiment: Arthritis index in obesity induced arthritis (collagen induced arthritis) model; assay type: in vivo, C57BL/6 mouse; settings: 300 mg/kg oral, 10 times, three times per week, up to 61 days, FIG. 11
[4] = system: Th17 cells and Treg cells in spleen; experiment: Th17 and Treg cells in spleen sections, confocal microscope; assay type: in vivo, mouse; settings: obese mice treated with rebamipide, FIG. 5A, 5B
Source text: as §1, with “In” for “Further, in”, “according to the present disclosure affected” for “affects”, “i.e.” for “that is,”

[5] = system: animal model with obesity induced arthritis; experiment: Immunohistochemistry staining of inflammatory cytokines in joint; assay type: in vivo, mouse; settings: immunochemical staining, vs obesity induced arthritis group, FIG. 14
Experimental: In order to check whether or not rebamipide of the present disclosure specifically can inhibit inflammatory cytokines such as IL-17, IL-6, IL-1b, TNF-a, and Nitrothyrosine in the joint of an animal model with obesity induced arthritis, the joint of a mouse was treated by the same method as illustrated in Example <9-2>. Then, inflammatory cytokines were stained by with an immunochemical staining method and analyzed with an optical microscope.

[6] = system: Th17 cells; experiment: Th17 cell inhibition, flow cytometry of blood and spleen cells; assay type: cell-based, mouse; settings: method: pre-treated at 1000 μM
Experimental: In order to stimulate CD4+ T cells 1×10 separated from the spleen under differentiation conditions of Th17 cells, the CD4+ T cells 1×10 were divided into a 24-well plate coated with 1 μg/Ml of an anti-CD3 antibody and treated with all of 1 μg/mL of an anti-CD28 antibody, 2 ng/ml of TGF-β, 20 ng/ml of IL-6, 10 ng/ml of anti-IL-4, and 10 ng/ml of anti-IFNr together suitable for stimulating Th17 cells. Then, the cells were stimulated for 1 hour. In this case, the cells were pre-treated with a rebamipide compound at a concentration of 1000 μM and cultured for 1 hour. The collected cells were allowed to react with a PerCP-anti-mouse CD4 antibody and a PE-anti-mouse phospho STATS antibody at 4° C. for 30 minutes in a dark field and washed with FACs buffer (0.002% sodium azide, 0.2% BSA/PBS). These cells were washed twice with Perm Wash buffer and re-floated on the FACs buffer and then analyzed with a flow cytometer.

[7] = system: animal model with collagen induced arthritis (CIA); experiment: Histological inspection of joints in collagen induced arthritis model; assay type: in vivo, mouse; settings: 300 mg/kg oral, after 61 days, H&E, Toluidine blue, safranin O, FIG. 12
Experimental: Each animal model with collagen induced arthritis (CIA) was orally administered with rebamipide with a dose of 300 mg/kg. After 61 days, euthanasia was administered to the experimental animals. Then, hind legs of the mouse were fixed with 10% formalin, and compounds of calcium were removed from the bone and paraffin was coated. A section of the joint (7 μm) was prepared and stained with hematoxylin and eosin. Further, in order to check damage of cartilage, a histological inspection was carried out by staining with Toluidine blue and safranin O.

O=C(NC(Cc1cc(=O)[nH]c2ccccc12)C(=O)O)c1ccc(Cl)cc1 (centres unmarked) [rebamipide, 2-(4-chlorobenzoylamino)-3-[2(1H)-quinolinon-4-yl]propionic acid]
Treg cells in spleen [1]: increased
expression of Th17 in spleen [1]: reduced
ratio of the brown fat to the white fat [2]: increased
arthritis index [3]: decreased
Treg cells in spleen [4]: increased
expression of Th17 in spleen [4]: reduced
infiltration of IL-1b in joint [5]: inhibited
infiltration of IL-6 in joint [5]: inhibited
infiltration of IL-17 in joint [5]: inhibited
infiltration of Nitrothyrosine in joint [5]: inhibited
infiltration of TNF-a in joint [5]: inhibited
Th17 cells in blood ([6]; FIG. 4A): significantly reduced
Th17 cells in spleen ([6]; FIG. 4B): significantly reduced
damage of the joint and cartilage (histology) [7]: damage of the joint and cartilage was not severe and maintained similarly to a normal mouse
